Assay results reported in PubChem BioAssay (NCI).
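Grown in 96-well plates, cells were treated for 48 hours with each compound at five concentrations. Insufficient inhibition: endpoint recorded as highest concentration tested. GI50 marks 50% less growth. TGI: total growth inhibition.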

How the values were obtained:
Assay in all cases: inhibition of tumour cell growth, NCI panel, 48 h
A498 renal = test system: A498 renal
HL-60(TB) leukemia = test system: HL-60(TB) leukemia
HCT-15 colon = test system: HCT-15 colon
HOP-92 NSCLC = test system: HOP-92 NSCLC
SN12C renal = test system: SN12C renal
MALME-3M melanoma = test system: MALME-3M melanoma
K-562 leukemia = test system: K-562 leukemia
HS 578T breast = test system: HS 578T breast
786-0 renal = test system: 786-0 renal
T-47D breast = test system: T-47D breast
MDA-N = test system: MDA-N

Structure (SMILES)	TGI (A498 renal)	TGI (HL-60(TB) leukemia)	TGI (HCT-15 colon)	TGI (HOP-92 NSCLC)	TGI (SN12C renal)	TGI (MALME-3M melanoma)	TGI (K-562 leukemia)	TGI (HS 578T breast)	TGI (786-0 renal)	TGI (T-47D breast)	TGI (MDA-N)	GI50 (HS 578T breast)	GI50 (HL-60(TB) leukemia)	GI50 (HCT-15 colon)	GI50 (HOP-92 NSCLC)	GI50 (SN12C renal)	GI50 (MALME-3M melanoma)	GI50 (T-47D breast)	GI50 (K-562 leukemia)	GI50 (A498 renal)
CO/C(=N\N=C\c1ccc(Cl)cc1)c1ccncc1	> 100 µM	> 100 µM	> 100 µM	> 100 µM	> 100 µM	> 100 µM	> 100 µM													
O=C(O)CC(NC(=O)Nc1ccc([N+](=O)[O-])cc1)C(=O)Nc1ccc([N+](=O)[O-])cc1 (stereo not drawn)	> 100 µM		> 100 µM			> 100 µM	> 100 µM	> 100 µM	> 100 µM	> 100 µM	> 100 µM									
O=S(=O)(c1ccccc1)n1c(C(O)c2ccncc2)cc2ccccc21 (stereo not drawn)	> 100 µM		> 100 µM	> 100 µM	> 100 µM		> 100 µM		> 100 µM	> 100 µM	> 100 µM									
COc1ccc2oc(S(=O)(=O)N3CC(CCl)c4ccc([N+](=O)[O-])cc43)cc2c1 (stereo not drawn)	2.82 µM		3.3 µM	> 73.8 µM	14 µM	32.8 µM	0.285 µM	> 100 µM	5.47 µM	79.8 µM	11 µM									
CN(C)N=Nc1ccc([N+](=O)[O-])cc1C(N)=O	> 100 µM		> 100 µM	> 100 µM	> 100 µM	> 100 µM	> 100 µM													
CCCSc1cc(Cl)c(C)cc1S(=O)(=O)n1ccnc1OCCCN(C)C	> 100 µM		> 100 µM		> 100 µM	> 100 µM	> 100 µM	> 100 µM	> 100 µM	> 100 µM	> 100 µM									
COc1ccc2c(c1)OCC1(O)Cc3ccccc3OC21 (stereo not drawn)	> 100 µM		> 100 µM	> 100 µM	> 100 µM	> 100 µM	> 100 µM		> 100 µM	> 100 µM	> 100 µM									
COc1c(-c2cc(C)c(Cl)c(=O)[nH]2)c(O)c(OC)c2occc12		> 100 µM	> 100 µM	> 100 µM	> 100 µM	> 100 µM	> 100 µM		> 100 µM	> 100 µM	> 100 µM									
Cc1cn(C2CC(O)C(CO)C2C)c(=O)[nH]c1=O (stereo not drawn)		> 100 µM	> 100 µM	> 100 µM	> 100 µM	> 100 µM	> 100 µM													
C(=N\Nc1ncc(-c2cc3cc4c(cc3o2)OCO4)s1)/c1c[nH]c2ccccc12		14.4 µM	3.25 µM	5.34 µM	3.98 µM	4.02 µM	> 100 µM	6.02 µM		> 100 µM		2.02 µM	2.18 µM	1.14 µM	1.49 µM	0.374 µM	1.4 µM	2.09 µM	0.382 µM	
O=C1C=Cc2c(Cl)sc(Cl)c21	16.1 µM		3.14 µM		> 100 µM		3.21 µM		2.44 µM	> 22.7 µM										
CCOC(=O)C(=[N+]=[N-])C(=O)C[N+]12CCN(CC1)CC2	> 100 µM		> 100 µM	> 100 µM	> 100 µM	> 100 µM	> 100 µM	> 100 µM	> 100 µM	> 100 µM	> 100 µM									
O=[N+]([O-])C(/C(Cl)=C(/Cl)N1CCOCC1)=C1\NCCO1	> 100 µM		> 100 µM		> 100 µM	> 100 µM		> 100 µM	> 100 µM	> 100 µM	> 100 µM									
CN(C)CCCn1c(Cc2ccccc2)nc2cc(C(F)(F)F)ccc21	34.6 µM		69.6 µM	92 µM	> 100 µM	35.5 µM	47 µM	> 100 µM	33.9 µM	50.7 µM	33.1 µM									
COc1cc(Oc2nc3ccccc3nc2C(=O)O)cc(OC)c1OC	> 100 µM	> 100 µM	> 100 µM	> 100 µM		> 100 µM	> 100 µM	> 100 µM	> 100 µM	> 100 µM										
Cc1cc(S(=O)(=O)Nc2nc3ccsc3c(=O)n2N)c(S)cc1Cl		> 100 µM	> 100 µM		> 100 µM	> 100 µM	> 100 µM		> 100 µM		> 100 µM									
COC(=O)C1=C(C)N2CCCOC2(C)C(C(=O)OC)C1c1cccc(Cl)c1 (stereo not drawn)		58.4 µM		73.9 µM			> 100 µM													

Structure (SMILES)	TGI (A498 renal)	TGI (HL-60(TB) leukemia)	TGI (HCT-15 colon)	TGI (HOP-92 NSCLC)	TGI (SN12C renal)	TGI (MALME-3M melanoma)	TGI (K-562 leukemia)	TGI (HS 578T breast)	TGI (786-0 renal)	TGI (T-47D breast)	TGI (MDA-N)	GI50 (HS 578T breast)	GI50 (HL-60(TB) leukemia)	GI50 (HCT-15 colon)	GI50 (HOP-92 NSCLC)	GI50 (SN12C renal)	GI50 (MALME-3M melanoma)	GI50 (T-47D breast)	GI50 (K-562 leukemia)	GI50 (A498 renal)
CCN1CCN(C(=O)[C@]23CC[C@@H](C)[C@H](C)[C@@H]2C2=CC[C@@H]4[C@@]5(C)C/C(=C/c6cccnc6)C(=O)C(C)(C)[C@@H]5CC[C@@]4(C)[C@]2(C)CC3)CC1	4.05 µM	5 µM	3.26 µM	5.73 µM	3.01 µM	2.75 µM	7.44 µM	4.77 µM		13.4 µM		1.91 µM	2.08 µM	1.66 µM	1.57 µM	1.61 µM	1.4 µM	2.79 µM	2.63 µM	1.9 µM
C[C@]12CC[C@H]3[C@@H](CCC4=CC(=O)C=C[C@@]43O)[C@@H]1CCC2=O	> 100 µM		> 100 µM	> 100 µM	> 100 µM		> 100 µM		> 100 µM	> 100 µM	> 100 µM									
Cc1ccc(S(=O)(=O)NC(=O)NC(Cc2c[nH]c3ccccc23)C(=O)O)cc1 (stereo not drawn)		> 100 µM	> 100 µM	> 100 µM	> 100 µM	> 100 µM	> 100 µM	> 100 µM	> 100 µM	> 100 µM	> 100 µM									
COc1cc(/C=C2\C[C@H]3[C@@H]4CC=C5C[C@@H](N6CCCC6)CC[C@]5(C)[C@H]4CC[C@]3(C)[C@H]2O)cc(OC)c1OC	30.2 µM	21.9 µM	26.5 µM	25 µM	29.6 µM	23.9 µM	> 100 µM	25.2 µM	10.8 µM	44.6 µM										
CCOC(=O)C1=CN=C2C(=O)N(c3ccccc3)N(C)C2(C)C1=N (stereo not drawn)	> 100 µM	> 100 µM	> 100 µM	> 100 µM	> 100 µM	> 100 µM	> 100 µM		> 100 µM		> 100 µM									
O=S(=O)(c1cc(Cl)ccc1Cl)N1CCN(S(=O)(=O)c2cc(Cl)ccc2Cl)CC1	> 100 µM		> 100 µM	> 100 µM	> 100 µM	> 100 µM	> 100 µM	83.4 µM	> 100 µM	> 100 µM	> 100 µM									
CC(C)CC(=O)NC(Nc1ccc(S(=O)(=O)Nc2ncccn2)cc1)(C(F)(F)F)C(F)(F)F		> 100 µM	> 100 µM	> 100 µM	> 100 µM	> 100 µM	> 100 µM	> 100 µM	> 100 µM	> 100 µM	> 100 µM									
O=C1COC(c2ccccc2O)=NN1CCCN1CCCC1	> 100 µM		> 100 µM	> 100 µM	> 100 µM	> 100 µM		> 100 µM	> 100 µM	> 100 µM	> 100 µM									
CCNC(=S)N/N=C/c1cc(OC)ccc1O		> 100 µM	> 100 µM	> 100 µM	> 100 µM	> 100 µM	> 100 µM	> 100 µM	> 100 µM	> 100 µM	> 100 µM									
CCN(CC)CCCCCCCCNc1c2ccc(Cl)cc2nc2ccc(OC)cc12	2.78 µM	4.08 µM	2.46 µM	3.31 µM	3.73 µM		2.23 µM	> 100 µM		6.91 µM		2.82 µM	2.04 µM	0.966 µM	1.39 µM	1.64 µM		2.82 µM	0.376 µM	1.41 µM
Cc1ccccc1N=C(N)NC#N		> 100 µM	> 100 µM	> 100 µM	> 100 µM	> 100 µM	> 100 µM	> 100 µM	> 100 µM		> 100 µM									
CC1(C)CCC[C@]2(C)[C@@H]1CC[C@@]13O[C@@H]1C1=C(CO)C(=O)O[C@]14O[C@@H]4[C@@H]23	32.9 µM		37.4 µM	29.3 µM	20.5 µM	32.4 µM	> 55.2 µM		29.8 µM	> 100 µM	20.1 µM									
CC(=O)Nc1ccc(S(=O)(=O)Nc2nnc(S(N)(=O)=O)s2)cc1	> 100 µM	> 100 µM	> 100 µM	> 100 µM		> 100 µM			> 100 µM	> 100 µM										
CC(=O)N1N=C(c2c(O)ccc3ccccc23)CC1C(=O)c1ccco1 (stereo not drawn)	> 100 µM		> 100 µM	> 100 µM	> 100 µM	> 100 µM	49.2 µM	> 100 µM	> 100 µM	> 100 µM	76.9 µM									
Cc1nc2c(cc1C(=O)NN)c(=O)n(C)c(=O)n2C			> 100 µM		> 100 µM		> 100 µM		> 100 µM	> 100 µM	> 100 µM									
C=Nc1ccc([N+](=O)[O-])cc1	> 100 µM	> 100 µM	> 100 µM	> 100 µM	> 100 µM	> 100 µM	> 60.5 µM		> 100 µM											
CSC1=Nc2ccccc2-c2nc(-c3ccccc3)cc(-c3ccccc3)c2C1	> 100 µM	> 100 µM	> 100 µM		> 100 µM		> 100 µM		26 µM	76.4 µM	> 100 µM									
